The source of these data is patent US20190018003A1, “TUMOR DISCRIMINATION METHOD, DIAGNOSTIC AGENT FOR TUMOR, AND SENSITIZER FOR TUMOR DIAGNOSIS” (TOTO LTD., priority 2017, published 2019).

For the assay, the system named is T24 urinary bladder cancer cells. Kind of assay: Fluorescence enhancement in T24 cells by simultaneous administration of fluorescent dye (ALA) and particles. The note with it: Example 8, administration of fluorescent dye only, immediately after observation light irradiation. Format: cell-based, human. Here is the method:
An aqueous ALA solution (50 mmol/l) was mixed into an MEM medium (MEM, GlutaMAX™ supplement (Thermo Fisher Scientific)) to form a 4 mmol/l ALA solution. Further, an aqueous solution of light scattering particles (2) (ii) was mixed into an MEM medium to form light scattering particle solutions of 0.001, 0.002, and 0.02 w/v %.
Evaluation was performed as follows. The medium of the T24 cells on a 6-well plate, obtained in Example 3, was removed by an aspirator, and thereto was added 2 ml of PBS (−) (Thermo Fisher Scientific). Once again, PBS (−) was removed by an aspirator, thereto was added 2 ml of a mixed solution obtained by mixing 1 ml of the ALA solution and 1 ml of the light scattering particle solution, and the system was cultured under conditions of 3TC and 5 v/v % CO2 for 2 hours. Then, the mixed solution of the cells on the 6-well plate was removed by an aspirator, thereto was added 2 ml of HBSS (−) (Thermo Fisher Scientific) to wash the residue, HBSS (−) was removed again by an aspirator, to the residue was added 2 ml of HBSS (−), and the solution was used for detection.
Detection of fluorescence was performed in the same manner as in Example 4 by using an inverted fluorescence microscope and, from the images acquired, fluorescence intensities were obtained and relative fluorescence intensities were calculated.

`NCC(=O)CCC(=O)O` [fluorescent dye, 5-aminolevulinic acid]: the Relative fluorescence intensity came to 1.0.
